US11324852B2, “Coated silk films, methods for the production thereof and uses thereof” (AMSILK GMBH, priority 2014, dated 2022)
Counter-ions that a name gives are not always drawn.

B1: C16: silk polypeptide which comprises 16 repeats of the sequence of module C (SEQ ID NO: 21) (protein)
chain: GSSAAAAAAAASGPGGYGPENQGPSGPGGYGPGGPGSSAAAAAAAASGPGGYGPENQGPSGPGGYGPGGPGSSAAAAAAAASGPGGYGPENQGPSGPGGYGPGGPGSSAAAAAAAASGPGGYGPENQGPSGPGGYGPGGPGSSAAAAAAAASGPGGYGPENQGPSGPGGYGPGGPGSSAAAAAAAASGPGGYGPENQGPSGPGGYGPGGPGSSAAAAAAAASGPGGYGPENQGPSGPGGYGPGGPGSSAAAAAAAASGPGGYGPENQGPSGPGGYGPGGPGSSAAAAAAAASGPGGYGPENQGPSGPGGYGPGGPGSSAAAAAAAASGPGGYGPENQGPSGPGGYGPGGPGSSAAAAAAAASGPGGYGPENQGPSGPGGYGPGGPGSSAAAAAAAASGPGGYGPENQGPSGPGGYGPGGPGSSAAAAAAAASGPGGYGPENQGPSGPGGYGPGGPGSSAAAAAAAASGPGGYGPENQGPSGPGGYGPGGPGSSAAAAAAAASGPGGYGPENQGPSGPGGYGPGGPGSSAAAAAAAASGPGGYGPENQGPSGPGGYGPGGP

Assays:
Format in all cases: physicochemical
C16 films = assay: Remote loading of drugs and model protein lysozyme into C16 films; conditions: 30 min, room temperature
Method: Loading efficiency and loading were determinate for lysozyme dissolved in high purified water (HPW). For the remote loading of lysozyme, the loading solution was prepared dissolving 1% w/v lysozyme in high purified water. Three different films were weighted, following by incubation in a 6-well plate with 5 ml of the loading solution at room temperature, at 2 rpm. After 30 min, films were removed and the loading solution was diluted 1:20 and analysed photometrically at 280 nm recording its spectra using a spectrophotometer (Agilent Technologies 8453, Oberhaching, Germany). A calibration curve was prepared using the original lysozyme solution. The same method was performed using as incubation medium of 0.5% and 0.25% of lysozyme.
A) Low molecular weight drugs (tetracain hydrochloride, ethacridine monohydrate lactate, nipagin and phenol red) were dissolved at a concentration of 0.5 mg/ml in highly purified water (HPW), Tris 5 mM pH 7, and formate buffer 5 mM, pH 3, respectively. After dissolving the drugs, all solutions were filtered through a 0.45 μm cellulose acetate filter.
For the remote loading process, the previously cast C16 films were cut into pieces, weighed and placed into 24-well plates. At least four C16 film samples were incubated with 1 ml of each drug solutions for 30 min at gently agitation of 2 rpm at room temperature. After removing the C16 films, the quantities of the loaded drugs were calculated indirectly by measuring the remaining loading solutions photometrically. Finally, the loading and the loading-efficiency for each experimental condition were calculated (see Table 1).
For the remote loading of the model protein lysozyme, the loading solution was prepared by dissolving 1% w/v lysozyme in HPW. As before, three different C16 films were weighed. Afterwards, C16 films were incubated in a 6-well plate with 5 ml of the loading solution at gently agitation of 2 rpm at room temperature. After 30 min, C16 films were removed and the loading solution was analysed photometrically at 280 nm. Spectra were recorded using a spectrophotometer. At physiological pH, spider silk films are negatively charged.
B) For the remote loading of Lysozyme, the loading solution was prepared dissolving 1% w/v lysozyme in high purified water (HPW). Three different C16 films were weighted, followed by incubation in a 6-well plate with 5 ml of the loading solution at gently agitation of 2 rpm at room temperature. After 30 min, C16 films were removed and the loading solution was diluted 1:20 and analyzed photometrically at 280 nm. In particular, a spectra of this solution was subsequently recorded using a spectrophotometer (Agilent Technologies 8453, Oberhaching, Germany). A calibration curve was prepared using the original lysozyme solution. The same method was performed using an incubation medium with 0.5% and 0.25% of Lysozyme.

[1] = Cumulative release of paracetamol, FITC-dextran and FITC-BSA from directly loaded C16 films; conditions: for Release from C16 films (in words): 0.01 M PBS buffer pH 7.4, 37° C.
Method: Paracetamol: Before casting the C16 films, paracetamol was added and dissolved directly in 2.5% C16 protein solution. The resulting films contained each 2.5 mg of paracetamol. Three film samples containing paracetamol were incubated in 0.01 M PBS buffer pH 7.4 at 37° C. At predetermined time points, the buffer was removed and replaced with fresh medium. The release buffer was analyzed by NanoDrop 2000 (peqlab, Erlanger, Germany). […] Each film contained 1.3 mg of FITC-BSA or FD. Films containing the model drugs (n=3) were incubated in 0.01 M PBS buffer pH 7.4 at 37° C. At predetermined time points the buffer was removed and replaced with fresh medium. The release buffer was analyzed using the fluorescence spectrophotometer Cary Eclipse Varian (Agilent technology, Böblingen, Germany) applying an excitation wavelength of 490 nm and an emission of 520 nm. The drug which was not released was quantified by dissolving the film matrix in a 6 M GdmSCN solution. This solution was subsequently analyzed using a fluorescence spectrophotometer.
A) Spray-dried C16 proteins were dissolved in 6 M guanidinium thiocyanate and subsequently dialyzed against 5 mM Tris/HCl buffer, pH 8 at 4° C. The pH was measured using a pH meter. The protein solution was centrifuged at 10000 rpm for 15 min and filtered through a 0.45 μm cellulose acetate filter. The protein concentration was determined photometrically. The protein solution was finally diluted with Tris buffer to 2.5% w/v. Before casting the films, paracetamol was added and dissolved directly in the protein solution. Films (2.5×3 cm) were cast on the plastic foil A5 22/5B from mtv-messtechnik (Koeln, Germany) and dried in a laminar flow cabinet at room temperature overnight at 45% relative humidity. The resulting films contained 2.5 mg of drug. Three film samples containing paracetamol were incubated in 0.01 M PBS buffer, pH 7.4 at 37° C. At predetermined time points, the buffer was removed and replaced with fresh medium. The release buffer was analysed using a UV-Vis spectrophotometer.
Films were cast as described above. Every film contained 25 mg of C16 and 1.3 mg of FITC-BSA or FD, respectively. Films containing the substances were incubated in 0.01 M PBS buffer, pH 7.4 at 37° C. At predetermined time points, the buffer was removed and replaced with fresh medium. The release buffer was analysed using a fluorescence spectrophotometer applying an excitation wavelength of 490 nm and an emission of 520 nm. The substance which was not released was quantified by dissolving the film matrix in a 6M GdmSCN solution. This solution was subsequently analysed using a fluorescence spectrophotometer. The sum of the non-released substance and the released amount of substance was calculated as 100%. […] After direct loading with FITC-BSA, C16 films released almost 65% of the model protein within one week. […] The cumulative release of paracetamol, FITC-dextran 21 kDa (FD) and FITC-BSA from C16 films casted from an aqueous solution is shown in FIG. 6.

[2] = Isoelectric point (pI) of spider silk polypeptides
[3] = HPW (highly purified water), LMW drugs 0.5 mg/ml, lysozyme 1% w/v
[4] = pH 3 (formate buffer 5 mM), drug 0.5 mg/ml
[5] = pH 7 (Tris 5 mM), drug 0.5 mg/ml

Row | Molecule | Loading (L) (C16 films; [3]) | Loading efficiency (LE) (C16 films; [3]) | Loading (L) (C16 films; [4]) | Loading efficiency (LE) (C16 films; [4]) | Loading (L) (C16 films; [5]) | Loading efficiency (LE) (C16 films; [5]) | further results
1 | CC(O)C(=O)O.CCOc1ccc2nc3cc(N)ccc3c(N)c2c1.O [Ethacridine lact., ethacridine monohydrate lactate] | 3.3 ± 0.3% | 54.2 ± 3.2% | 2.4 ± 0.5% | 16.5 ± 5.4% | 3.5 ± 1.0% | 45.8 ± 2.7% | 
2 | CCCCNc1ccc(C(=O)OCCN(C)C)cc1 [Tetracaine HCl, tetracain hydrochloride] | 3.8 ± 1.9% | 35.1 ± 8.3% | 0.0 ± 0.0% | 0.0 ± 0.0% | 2.5 ± 07% | 24.3 ± 7.7% | 
3 | COC(=O)c1ccc(O)cc1 [Nipagin, nipagin] | 0.8 ± 0.3% | 9.6 ± 4.3% | 0.5 ± 0.2% | 5.3 ± 2.3% | 0.0 ± 0.0% | 0.0 ± 0.0% | 
4 | Lysozyme: model protein, positively charged at physiological pH | 39.8 ± 1.8% | 22.8 ± 0.7% |  |  |  |  | 
5 | CC(=O)Nc1ccc(O)cc1 [paracetamol] |  |  |  |  |  |  | Release from C16 films (in words) ([1]; direct loading): completely release
6 | FITC-BSA: FITC-BSA (MW 66.5 kDa), model drug / model protein |  |  |  |  |  |  | Release after the burst (in words) ([1]; after day 1, 0.01 M PBS pH 7.4, 37° C.): constant amount per day; Release from C16 films (in words) ([1]; direct loading): slower; Burst release from C16 films ([1]; on day 1, direct loading, 0.01 M PBS pH 7.4, 37° C.): approx. 30%; Cumulative release from C16 films ([1]; within one week, direct loading, 0.01 M PBS pH 7.4, 37° C.): ~65%
7 | B1 |  |  |  |  |  |  | pI [2]: 3.48
